We go through seven compounds from article PMC9738192, “Lupane Triterpene Derivatives Improve Antiproliferative Effect on Leukemia Cells through Apoptosis Induction” (Molecules, 2022).

Converted amounts (≈) assume the structure as drawn. Bounds are passed on as bounds.

The test system of assay [1] is K562 cell line. The assay is described as follows: Bioassay of viability in leukemic cell lines (DAPI, flow cytometry). In kind it is cell-based, human. To be noted: for IC50: Homo sapiens, K562, 48 h. The source says: (§1) Chronic myeloid leukemia (K562; ATCC CCL-243), acute myeloid leukemia (HL60; ATCC CCL-240), and green monkey kidney cells (Vero, ATCCCCL-81) from the American Type Culture Collection (ATCC) were provided by María Antonieta Chávez Gónzalez from Unidad de Investigación Oncológica, Hospital de Oncología, Centro Médico Nacional, Instituto Mexicano del Seguro Social (IMSS, Ciudad de México, México). The K562 cell line was maintained with RPMI medium at 10% FBS, the HL60 cell line was maintained with IMDM medium at 20% FBS, and the VERO cell line was maintained with DMEM medium at 10% FBS; 1% penicillin-streptomycin was added to both cell lines and incubated at an atmosphere of culture with 95% humidity and 5% CO2 at 37 °C. All evaluation was performed between 4 and 5 cell passages.
(§2) In all cases, medium with DMSO (0.1%) was used as a negative control, and etoposide was used as positive control for K562, HL60, Vero cell lines, and normal MNC. All tests were carried out in triplicate.
(§3) A total of 2 × 10^5 cells/well were cultured into 24-well plates and treated with different concentrations of four compounds (0.1, 1, 10, and 100 μg/mL) for 48 h. At the end of this time, the cells were collected and stained with 4′,6-diamidino-2-phenylindole dihydrochloride (DAPI) at 500 ng/mL for 30 min, according to manufacturer instructions, for 15 min in darkness. The samples were then analyzed by flow cytometry using a CytoFlex flow cytometer (Beckman Coulter, Indianapolis, IN, USA).
(§4) All cytometric data were analyzed using FlowJo^TM v10.6 software. Results of viability are expressed as the concentration of agent that reduces cell growth by 50% (IC50), calculated by GraphPad Prism 5 software. The data were expressed as means ± SEM. Statistical significance was calculated with a one-way analysis of variance (ANOVA) followed by Dunnett’s post-hoc test, applying a p < 0.05 significance level.

Assay [2] deals with HL60 cell line. The description is as above. To be noted: for IC50: Homo sapiens, HL-60, HL60, 48 h. In kind it is cell-based, human.
Text: as §1, §2, §3, §4

Assay [3] has as its system K562 cell line. The experiment in a line: Assessment of intracellular reactive oxygen species (CM-H2DCFDA). The assay is classed as cell-based, human. On the procedure:
Cells (1× 10^5) were cultured in 12-well plates and were stained with 10 μM of chloromethyl 2′,7′-dichlorodihydrofluorescein diacetate (CM-H2DCFDA) for 30 min at 37 °C. Briefly, the cells were treated with compound 1m at two different concentrations (19.5 and 39.0 µg/mL) and control (H2O2 at 50 µM) to later be incubated for 2 and 4 h. After this time, cells were analyzed using CytoFlex flow cytometry (Beckman Coulter, Indianapolis, IN, USA).

The subject of assay [4] is K562 cells. The experiment in a line: Apoptosis assay (annexin V-FITC / 7-AAD). In kind it is cell-based, human. As for the experimental part: Cells (2 × 10^5) were cultured in 24-well plates and treated with compound T1m at two different concentrations (19.5 and 39.0 µg/mL), to later be incubated for 18, 24, and 48 h. After this time, cells were washed with PBS and stained with annexin V-FITC and 7-AAD apoptosis kit (BD Bioscience) and incubated in the dark for 15 min. Then they were analyzed by CytoFlex flow cytometry (Beckman Coulter, Indianapolis, IN, USA).

The subject of assay [5] is K562 cell line. The experiment in a line: Assessment of mitochondrial membrane potential (rhodamine 123). The assay is classed as cell-based, human. The following applies: 18 h, Rho-123. As for the experimental part:
Cells (1× 10^5) were cultured in 12-well plates and treated with compound 1m at two different concentrations (19.5 and 39.0 µg/mL), to later be incubated for 18 h. After this time, cells were stained with 5 μM of rhodamine 123 (Rho-123) and incubated for 30 min at 37 °C. Briefly, cells were washed with PBS and analyzed using a Cytoflex flow cytometer (Beckman Coulter, Indianapolis, IN, USA).

The subject of assay [6] is Vero cell line. The experiment in a line: Bioassay of viability in Vero cell line (SRB). In kind it is cell-based, green monkey. To be noted: Chlorocebus sabaeus; Vero normal cell line, 48 h.
Text: as §1
The cells (1 × 10^4 cells/well) were seeded onto 96-well plates and incubated at 37 °C and 5% CO2 until reaching 70–80% confluence. The medium was replaced with fresh medium containing the […] different concentrations (0.1, 1, 10, and 100 μg/mL) of compounds for 48 h. After 100 μL of 10% trichloroacetic acid were added to each well, and cells were incubated for 30 min at 4 °C. Then the supernatant was removed, 100 μL of sulforhodamine B (SRB) at 0.1% with 1% of acetic acid were added, and incubated again for 15 min. Subsequently, washings were carried out with 1% acetic acid; and finally, the dye was solubilized with 200 uL of tris-base at 10 mM; and the optical density was measured at 560 nm using a GloMax spectrophotometer (Promega, WI, USA).
as §4

Assay [7] relates to K562 cells. The assay is described as follows: Cell cycle assay (DAPI, flow cytometry). The assay is classed as cell-based, human. As for the experimental part:
One million cells of K562 were cultured in 12-well plates and incubated for 18, 24, and 48 h with compound T1m at two different concentrations (19.5 and 39.0 μg/mL). After this time, the cells were collected and centrifuged at 300× g at room temperature for 5 min. The cells were resuspended in PBS, added absolute ethanol on ice, and incubated for 1 h at 4 °C. After that. Cells were centrifuged at 300× g at 4 °C for 5 min. Next, cells were washed with PBS 3% FBS and permeabilized for 20 min with 0.1% triton. After, the cells were stained with DAPI at 500 ng/mL for 1 h. After this procedure, cells were analyzed using […]. Cells analysis was carried out in an Attune flow cytometer (Thermo Fisher Scientific, Carlsbad, CA, USA).
On the technique in general: A flow cytometer gives signals particle by particle.

The subject of assay [8] is peripheral blood mononuclear cells (MNC). The assay is described as follows: Viability test in normal mononuclear cells (DAPI, flow cytometry). In kind it is cell-based. To be noted: Homo sapiens, PBMC, 48 h. On the procedure:
Normal mononuclear cells were obtained from normal human peripheral blood monocytes and donated by the corresponding author (Moo-Puc) of the manuscript submitted. The MNC was purified with FicollPaque Plus (Pharmacia Biotech, Uppsala, Sweden) by centrifugation at 400× g at room temperature for 30 min according to the manufacturer’s protocol. Once the MNC were obtained, they were resuspended in RPMI medium (ATCC) with 10% FBS, and they were counted using a hemocytometer, previously stained with a trypan blue solution, verifying the viability of 95% [61].
Cells were plated at 2 × 10^5 cells/well in 24-well plates and incubated with different concentrations of compounds T1m (0.1, 1, 10, and 100 μg/mL) for 48 h. RPMI with 10% FBS was used as a culture medium for cell growth. After this time, cells were collected, washed with PBS, and stained with DAPI at 500 ng/mL for 30 min, according to manufacturer instructions. Cells analysis was carried out in a CytoFlex flow cytometer (Beckman Coulter, Indianapolis, IN, USA).
All cytometric data were analyzed using FlowJo^TM v10.6 software. […] The data were expressed as means ± SEM. Statistical significance was calculated with a one-way analysis of variance (ANOVA) followed by Dunnett’s post-hoc test, applying a p < 0.05 significance level.

One may read the IC50 as the concentration at which inhibition is half-maximal. Lower therefore signals greater potency in that assay. For the compound `C=C(C)[C@@H]1CC[C@]2(C(=O)O)CC[C@]3(C)C(CCC4[C@@]5(C)CC[C@@H](OC)[C@](C)(CO)C5CC[C@]43C)C12` (stereo partly drawn) [Compound T1m, 3α-methoxy-24-hydroxylup-20(29)-en-28-oic acid], the IC50 in assay [1] was 39.5 ± 1.1 µg/mL (≈ 81.1 µM); in assay [2], 68.6 ± 1.2 µg/mL (≈ 141 µM); in assay [6], 66.8 ± 1 µg/mL (≈ 137 µM); in assay [8] it was 86.5 ± 1.2 µg/mL (≈ 178 µM). The “selectivity index (IS)” value in assay [1] (IC50 MNC over IC50 K562) was determined as 2.19; in assay [1] (IC50 Vero over IC50 K562), 1.69; in assay [2] (IC50 MNC over IC50 HL60) it was 1.26. The “ROS increase vs negative control” value in assay [3] (K562, 19.5 μg/mL, 2 h) is listed as “five-fold”; in assay [3] (K562, 19.5 μg/mL, 4 h), “six-fold”; in assay [3] (K562, 39.0 μg/mL, 2 h) it was “seven-fold”; in assay [3] (K562, 39.0 μg/mL, 4 h), “nine-fold”. The “apoptotic cell population (positive annexin V-FITC)” value in assay [4] (K562, 19.5 μg/mL, 48 h) amounted to 11.91 ± 1.04%; in assay [4] (K562, 39.0 μg/mL, 18 h) it was 12.50 ± 0.65%; in assay [4] (K562, 39.0 μg/mL, 48 h), 27.47 ± 1.23%; in assay [4] (K562, at IC50 (39.0 μg/mL), 24 h), 24.35 ± 1.04%. Moreover, the “MMP (mitochondrial membrane potential) compared with negative control” value in assay [5] (K562, 19.5 μg/mL) is reported as “approximately 45%”; in assay [5] (K562, 39.0 μg/mL), 67%. In addition, the “cell cycle distribution vs negative control” value in assay [7] (K562, 19.5 μg/mL, 18 h) was “No difference”. Moreover, the sub-G0 population in assay [7] (K562, 39.0 μg/mL, 18 h) was 7.29 ± 0.05%; in assay [7] (K562, 39.0 μg/mL, 24 h), 13.30 ± 1.20%; in assay [7] (K562, at IC50 (39.0 μg/mL), 48 h) it was 85.85 ± 0.15%.

For `C=C(C)[C@@H]1CC[C@]2(C(=O)OC)CC[C@]3(C)C(CCC4[C@@]5(C)CC[C@H]6OC(C)(C)OC[C@@]6(C)C5CC[C@]43C)C12` (stereo partly drawn) [Compound T2COOMe, methyl ester of 3α,23-O-isopropylidenyl-3α,23-dihydroxylup-20(29)-en-28-oic acid], the IC50 in assay [1] was above 100 µg/mL; in assay [2], above 100 µg/mL; in assay [6] it was above 200 µg/mL.

As to `C=C(C)[C@@H]1CC[C@]2(C(=O)O)CC[C@]3(C)C(CCC4[C@@]5(C)CC[C@H]6OC(C)(C)OC[C@@]6(C)C5CC[C@]43C)C12` (stereo partly drawn) [Compound T2, 3α,23-O-isopropylidenyl-3α,23-dihydroxylup-20(29)-en-28-oic acid], the IC50 in assay [1] is above 100 µg/mL; in assay [2], above 100 µg/mL; in assay [6] it was above 200 µg/mL.

Take `OO` [Compound H2O2, H2O2, reference compound]: in assay [3] (K562, damage control (50 µM), 2 h), the “ROS increase vs negative control” value is listed as “seven-fold”.

`C=C(C)[C@@H]1CC[C@]2(C(=O)O)CC[C@]3(C)C(CCC4[C@@]5(C)CC[C@@H](O)[C@](C)(CO)C5CC[C@]43C)C12` (stereo partly drawn) [Compound T1, 3α,24-dihydroxylup-20(29)-en-28-oic acid]: the IC50 was 100 ± 1 µg/mL (≈ 212 µM) in assay [1], above 100 µg/mL in assay [2] and 137.2 ± 1.1 µg/mL (≈ 290 µM) in assay [6]. Also, the “selectivity index (IS)” value in assay [1] (IC50 Vero over IC50 K562) is recorded as 1.37.

`C=C(C)[C@@H]1CC[C@]2(C(=O)O)CC[C@]3(C)C(CCC4[C@@]5(C)CC[C@@H](OC(C)=O)[C@](C)(CO)C5CC[C@]43C)C12` (stereo partly drawn) [Compound T1Ac, 3α-acetyl-24-hydroxylup-20(29)-en-28-oic acid]: the results for the IC50 in assay [1], in assay [2] and in assay [6] were above 100 µg/mL, above 100 µg/mL and above 200 µg/mL, respectively.

With `COc1cc([C@@H]2c3cc4c(cc3[C@@H](O[C@@H]3O[C@@H]5CO[C@@H](C)O[C@H]5[C@H](O)[C@H]3O)[C@H]3COC(=O)[C@H]23)OCO4)cc(OC)c1O` [Etoposide, etoposide, reference compound], the IC50 was 14.7 ± 1.2 µg/mL (≈ 25 µM) in assay [1], 1.3 ± 0.3 µg/mL (≈ 2.21 µM) in assay [2], 29.4 ± 1.1 µg/mL (≈ 50 µM) in assay [6] and above 100 µg/mL in assay [8]. Moreover, the “selectivity index (IS)” value was above 6.80 in assay [1] (IC50 MNC over IC50 K562), 2.00 in assay [1] (IC50 Vero over IC50 K562), above 76.92 in assay [2] (IC50 MNC over IC50 HL60) and 22.63 in assay [2] (IC50 Vero over IC50 HL60). Moreover, the “ROS increase vs negative control” value in assay [3] (K562, positive control, 2 h) is reported as “six-fold”. Further, the “apoptotic cell population (positive annexin V-FITC)” value in assay [4] (K562, positive control, 18 h) is recorded as 13.34 ± 0.04%; in assay [4] (K562, positive control, 24 h), 17.91 ± 0.06%; in assay [4] (K562, positive control, 48 h) it was 32.60 ± 0.55%. In addition, the G2 population entry in assay [7] (K562, 14.7 μg/mL, 18 h, positive control) is listed as “increase”.
